Reference: patent US8921362B2, “6,7-dialkoxy quinazoline derivatives and methods of treating drug resistant and other tumors” (Natco Pharma Limited, priority 2008, dated 2014)

Experiments:
Assay in all cases: KinomeScan
Assay type in all cases: binding
Conditions in all cases: read-out: % Ctrl @ 10000 nM
MKNK1 = target: T1, MKNK1 (Homo sapiens, UniProt Q9BUB5)
T1 construct: host or cells: T7 phage grown in E. coli host derived from BL21
Procedure, shortened: (§1)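 An active-site competition format was used, with T7 phage displaying the kinase and affinity beads carrying immobilized ligand. Blocking buffer contained SeaBlock, 1% BSA, 0.05% Tween 20 and 1 mM DTT.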

NEK6 = target: T2, NEK6 (Homo sapiens, UniProt Q9HC98)
T2 construct: host or cells: T7 phage grown in E. coli host derived from BL21
Procedure, shortened: as §1

BTK = target: T3, BTK (Homo sapiens, UniProt Q06187)
T3 construct: host or cells: E. coli host derived from BL21
Procedure, shortened: as §1

MUSK = target: T4, MUSK (Homo sapiens, UniProt O15146)
T4 construct: host or cells: T7 phage grown in E. coli host derived from BL21
Procedure, shortened: as §1

EGFR(E746-A750del) = target: T5, EGFR(E746-A750del) (Homo sapiens, UniProt P00533, DEL746-750)
T5 construct: purchased Ambit Biosciences Corp (KinomeScan); host or cells: T7 phage in E. coli host derived from BL21
Procedure, shortened: as §1

PCTK2 = target: T6, PCTK2 (Homo sapiens, UniProt Q00537)
T6 construct: host or cells: E. coli host derived from BL21, infected with T7 phage
T6 sequence (Q00537 whole entry): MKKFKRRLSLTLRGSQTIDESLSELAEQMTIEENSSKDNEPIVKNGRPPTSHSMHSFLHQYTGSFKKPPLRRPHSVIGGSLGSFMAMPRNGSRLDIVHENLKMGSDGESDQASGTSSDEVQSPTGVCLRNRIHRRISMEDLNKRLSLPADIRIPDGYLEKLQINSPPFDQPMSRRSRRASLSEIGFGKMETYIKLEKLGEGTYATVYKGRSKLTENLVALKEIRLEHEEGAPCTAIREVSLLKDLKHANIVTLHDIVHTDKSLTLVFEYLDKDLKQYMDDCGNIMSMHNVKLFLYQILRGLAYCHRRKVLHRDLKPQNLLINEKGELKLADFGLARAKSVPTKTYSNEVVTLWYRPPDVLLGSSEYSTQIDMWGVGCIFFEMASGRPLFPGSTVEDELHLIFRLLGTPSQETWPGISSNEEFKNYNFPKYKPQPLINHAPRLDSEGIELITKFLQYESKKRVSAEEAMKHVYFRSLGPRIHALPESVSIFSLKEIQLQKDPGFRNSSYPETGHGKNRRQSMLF
Procedure, shortened: as §1

ARK5 = target: T7, ARK5 (Homo sapiens, UniProt O60285)
T7 construct: host or cells: E. coli host derived from BL21
Procedure, shortened: as §1

EGFR(S752-1759del) = target: T8, EGFR(S752-1759del) (Homo sapiens, UniProt P00533, DEL752-759)
T8 construct: purchased Ambit Biosciences Corp; host or cells: T7 phage in E. coli host derived from BL21
Procedure, shortened: as §1

PIM2 = target: T9, PIM2 (Homo sapiens, UniProt Q9P1W9)
T9 construct: host or cells: T7 phage in E. coli host derived from BL21
T9 sequence (Q9P1W9 whole entry): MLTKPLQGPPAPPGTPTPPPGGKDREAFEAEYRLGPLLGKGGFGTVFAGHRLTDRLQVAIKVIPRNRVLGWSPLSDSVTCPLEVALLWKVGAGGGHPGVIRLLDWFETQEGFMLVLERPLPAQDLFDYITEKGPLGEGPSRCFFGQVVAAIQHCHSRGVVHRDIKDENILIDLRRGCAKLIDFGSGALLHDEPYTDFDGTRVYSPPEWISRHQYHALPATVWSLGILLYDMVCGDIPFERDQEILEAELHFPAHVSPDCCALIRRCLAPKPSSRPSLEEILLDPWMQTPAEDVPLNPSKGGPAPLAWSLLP
Procedure, shortened: as §1

MAP4K3 = target: T10, MAP4K3 (Homo sapiens, UniProt Q8IVH8)
T10 construct: host or cells: E. coli host derived from the BL21 strain, infected with T7 phage
Procedure, shortened: as §1

AKT1 = target: T11, AKT1 (Homo sapiens, UniProt P31749)
T11 construct: host or cells: E. coli (BL21-derived), T7 phage lysate
Procedure, shortened: as §1

ACVR2A = target: T12, ACVR2A (Homo sapiens, UniProt P27037)
T12 construct: host or cells: E. coli (BL21-derived), T7 phage lysate
Procedure, shortened: as §1

RIPK1 = target: T13, RIPK1 (Homo sapiens, UniProt Q13546)
T13 construct: host or cells: E. coli host derived from BL21, T7 phage display
T13 sequence (Q13546 whole entry): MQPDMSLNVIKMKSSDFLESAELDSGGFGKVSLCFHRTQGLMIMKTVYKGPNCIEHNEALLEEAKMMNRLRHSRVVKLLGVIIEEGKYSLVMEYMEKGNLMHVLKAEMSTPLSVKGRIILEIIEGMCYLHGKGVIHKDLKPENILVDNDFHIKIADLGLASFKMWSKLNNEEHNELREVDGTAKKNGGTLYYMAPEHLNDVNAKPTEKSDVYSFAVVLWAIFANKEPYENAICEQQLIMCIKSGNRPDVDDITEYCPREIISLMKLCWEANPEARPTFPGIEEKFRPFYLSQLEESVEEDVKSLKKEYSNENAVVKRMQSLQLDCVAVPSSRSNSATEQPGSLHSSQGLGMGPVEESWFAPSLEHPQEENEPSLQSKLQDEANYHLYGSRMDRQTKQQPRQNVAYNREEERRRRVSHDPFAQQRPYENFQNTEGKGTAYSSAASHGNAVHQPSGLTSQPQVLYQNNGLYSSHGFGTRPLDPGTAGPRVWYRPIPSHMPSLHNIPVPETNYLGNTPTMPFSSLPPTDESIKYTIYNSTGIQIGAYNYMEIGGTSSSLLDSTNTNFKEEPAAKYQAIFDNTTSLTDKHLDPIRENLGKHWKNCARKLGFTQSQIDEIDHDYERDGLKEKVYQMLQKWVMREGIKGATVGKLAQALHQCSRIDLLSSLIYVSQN
Procedure, shortened: as §1

[1] = target: T14, RPS6KA5(Kin.Dom.-1-N-terminal) (Homo sapiens, UniProt O75582)
T14 construct: RPS6KA5(Kin.Dom.-1-N-terminal); host or cells: E. coli host derived from BL21, T7 phage display
T14 sequence (O75582 49-318 limits assumed): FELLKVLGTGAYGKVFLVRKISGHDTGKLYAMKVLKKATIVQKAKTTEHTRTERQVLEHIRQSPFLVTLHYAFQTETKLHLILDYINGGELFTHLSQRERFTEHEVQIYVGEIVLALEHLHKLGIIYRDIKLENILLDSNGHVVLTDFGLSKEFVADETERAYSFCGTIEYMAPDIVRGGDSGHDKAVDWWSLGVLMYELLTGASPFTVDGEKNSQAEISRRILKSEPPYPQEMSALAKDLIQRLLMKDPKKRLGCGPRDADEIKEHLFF
Procedure, shortened: as §1

RET = target: T15, RET (Homo sapiens, UniProt P07949)
T15 construct: host or cells: E. coli host derived from BL21, T7 phage display
T15 sequence (P07949 29-1114): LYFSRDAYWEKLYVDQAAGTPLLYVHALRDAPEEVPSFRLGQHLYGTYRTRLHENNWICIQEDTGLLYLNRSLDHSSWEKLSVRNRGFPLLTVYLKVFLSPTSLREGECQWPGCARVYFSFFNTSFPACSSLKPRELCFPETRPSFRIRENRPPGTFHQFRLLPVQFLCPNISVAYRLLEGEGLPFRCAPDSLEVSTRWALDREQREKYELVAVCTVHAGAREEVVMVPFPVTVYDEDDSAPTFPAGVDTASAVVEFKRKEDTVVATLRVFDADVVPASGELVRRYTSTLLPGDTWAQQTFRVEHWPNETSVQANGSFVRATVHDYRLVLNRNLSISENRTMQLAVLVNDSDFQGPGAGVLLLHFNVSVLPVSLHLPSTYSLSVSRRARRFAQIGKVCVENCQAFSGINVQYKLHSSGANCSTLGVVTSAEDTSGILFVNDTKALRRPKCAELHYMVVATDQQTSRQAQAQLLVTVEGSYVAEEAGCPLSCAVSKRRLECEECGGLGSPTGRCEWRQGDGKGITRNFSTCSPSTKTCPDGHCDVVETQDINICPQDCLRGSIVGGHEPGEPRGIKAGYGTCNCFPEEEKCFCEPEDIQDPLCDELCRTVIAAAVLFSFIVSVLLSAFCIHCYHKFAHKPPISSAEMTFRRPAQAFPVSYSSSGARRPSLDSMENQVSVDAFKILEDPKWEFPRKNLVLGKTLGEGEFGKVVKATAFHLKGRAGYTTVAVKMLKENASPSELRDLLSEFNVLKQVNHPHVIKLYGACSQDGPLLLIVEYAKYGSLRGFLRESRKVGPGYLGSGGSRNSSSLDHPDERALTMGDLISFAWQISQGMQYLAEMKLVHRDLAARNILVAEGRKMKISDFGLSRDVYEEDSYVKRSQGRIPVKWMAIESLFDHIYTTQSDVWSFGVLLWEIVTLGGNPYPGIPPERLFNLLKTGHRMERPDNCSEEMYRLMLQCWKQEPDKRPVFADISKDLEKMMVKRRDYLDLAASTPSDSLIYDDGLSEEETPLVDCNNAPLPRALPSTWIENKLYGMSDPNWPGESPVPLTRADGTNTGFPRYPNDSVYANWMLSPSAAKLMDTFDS
Procedure, shortened: as §1

PRKD2 = target: T16, PRKD2 (Homo sapiens, UniProt Q9BZL6)
T16 construct: host or cells: T7 phage in E. coli host derived from BL21
Procedure, shortened: as §1

RIOK1 = target: T17, RIOK1 (Homo sapiens, UniProt Q9BRS2)
T17 construct: host or cells: E. coli host derived from BL21, T7 phage display
Procedure, shortened: as §1

CHEK1 = target: T18, CHEK1 (Homo sapiens, UniProt O14757)
T18 construct: host or cells: T7 phage in E. coli host derived from BL21
T18 sequence (O14757 whole entry): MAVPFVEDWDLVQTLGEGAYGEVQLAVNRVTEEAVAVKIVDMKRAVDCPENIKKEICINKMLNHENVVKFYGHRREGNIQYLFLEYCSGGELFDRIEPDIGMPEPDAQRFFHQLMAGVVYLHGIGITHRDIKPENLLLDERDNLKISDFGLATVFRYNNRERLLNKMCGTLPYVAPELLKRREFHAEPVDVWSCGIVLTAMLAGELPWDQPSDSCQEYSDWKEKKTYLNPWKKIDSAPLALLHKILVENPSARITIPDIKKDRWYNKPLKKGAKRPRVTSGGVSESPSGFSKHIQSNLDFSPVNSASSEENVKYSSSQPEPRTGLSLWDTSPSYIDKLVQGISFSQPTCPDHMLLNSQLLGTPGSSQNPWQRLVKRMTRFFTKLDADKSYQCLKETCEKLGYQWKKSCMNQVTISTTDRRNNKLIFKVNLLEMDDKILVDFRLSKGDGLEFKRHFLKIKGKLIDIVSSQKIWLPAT
Procedure, shortened: as §1

[2] = target: T19, JAK3(JH1domain- catalytic) (Homo sapiens, UniProt P52333)
T19 construct: JAK3(JH1domain- catalytic); host or cells: T7 phage grown in E. coli host derived from BL21
Procedure, shortened: as §1

BRAF(V600E) = target: T20, BRAF(V600E) (Homo sapiens, UniProt P15056, V600E)
T20 construct: host or cells: E. coli host derived from BL21
Procedure, shortened: as §1

FLT3 = target: T21, FLT3 (Homo sapiens, UniProt P36888)
T21 construct: host or cells: T7 phage in E. coli host derived from BL21
T21 sequence (P36888 27-993): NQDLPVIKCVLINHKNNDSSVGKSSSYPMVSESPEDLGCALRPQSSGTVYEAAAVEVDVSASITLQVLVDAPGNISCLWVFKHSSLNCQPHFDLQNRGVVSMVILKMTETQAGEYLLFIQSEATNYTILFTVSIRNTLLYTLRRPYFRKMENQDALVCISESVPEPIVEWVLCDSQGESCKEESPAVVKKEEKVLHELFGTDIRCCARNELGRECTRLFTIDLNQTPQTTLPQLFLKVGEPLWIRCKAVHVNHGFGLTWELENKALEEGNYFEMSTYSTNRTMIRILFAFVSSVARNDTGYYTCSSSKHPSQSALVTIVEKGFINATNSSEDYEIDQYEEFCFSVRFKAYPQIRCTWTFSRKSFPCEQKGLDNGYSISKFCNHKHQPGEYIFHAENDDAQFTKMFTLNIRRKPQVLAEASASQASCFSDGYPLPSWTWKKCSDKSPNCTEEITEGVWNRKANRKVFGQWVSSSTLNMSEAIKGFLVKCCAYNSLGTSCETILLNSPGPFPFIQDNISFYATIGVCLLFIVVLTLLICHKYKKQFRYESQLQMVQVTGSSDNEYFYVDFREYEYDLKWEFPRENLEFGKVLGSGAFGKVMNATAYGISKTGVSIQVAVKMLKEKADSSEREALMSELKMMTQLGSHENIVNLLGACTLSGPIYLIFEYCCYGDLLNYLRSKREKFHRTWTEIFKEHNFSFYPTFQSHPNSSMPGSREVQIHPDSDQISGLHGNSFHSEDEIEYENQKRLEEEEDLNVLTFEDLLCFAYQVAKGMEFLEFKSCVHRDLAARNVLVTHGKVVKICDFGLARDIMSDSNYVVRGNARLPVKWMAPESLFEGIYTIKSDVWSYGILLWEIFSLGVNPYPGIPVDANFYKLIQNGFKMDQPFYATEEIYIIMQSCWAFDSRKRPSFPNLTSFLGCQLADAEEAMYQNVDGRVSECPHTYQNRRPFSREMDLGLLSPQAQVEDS
Procedure, shortened: as §1

ADCK3 = target: T22, ADCK3 (Homo sapiens, UniProt Q8NI60)
T22 construct: host or cells: E. coli (BL21-derived), T7 phage lysate
Procedure, shortened: as §1

[3] = target: T23, RPS6KA4(Kin.Dom.-1-N-terminal) (Homo sapiens, UniProt O75676)
T23 construct: RPS6KA4(Kin.Dom.-1-N-terminal); host or cells: E. coli host derived from BL21, T7 phage display
Procedure, shortened: as §1

PRKCE = target: T24, PRKCE (Homo sapiens, UniProt Q02156)
T24 construct: host or cells: T7 phage in E. coli host derived from BL21
Procedure, shortened: as §1

CSNK1G3 = target: T25, CSNK1G3 (Homo sapiens, UniProt Q9Y6M4)
T25 construct: purchased Ambit Biosciences Corp (KinomeScan); host or cells: T7 phage in E. coli host derived from BL21
Procedure, shortened: as §1

AAK1 = target: T26, AAK1 (Homo sapiens, UniProt Q2M2I8)
T26 construct: host or cells: E. coli (BL21-derived), T7 phage lysate
Procedure, shortened: as §1

ABL2 = target: T27, ABL2 (Homo sapiens, UniProt P42684)
T27 construct: host or cells: E. coli (BL21-derived), T7 phage lysate
Procedure, shortened: as §1

[4] = target: T28, JAK1(JH2domain-pseudokinase) (Homo sapiens, UniProt P23458)
T28 construct: JAK1(JH2domain-pseudokinase); host or cells: T7 phage grown in E. coli host derived from BL21
Procedure, shortened: as §1

ERK5 = target: T29, ERK5 (Homo sapiens, UniProt Q13164)
T29 construct: purchased Ambit Biosciences Corp; host or cells: T7 phage in E. coli host derived from BL21
Procedure, shortened: as §1

CAMKK1 = target: T30, CAMKK1 (Homo sapiens, UniProt Q8N5S9)
T30 construct: host or cells: T7 phage in E. coli host derived from BL21
Procedure, shortened: as §1

TAK1 = target: T31, TAK1 (Homo sapiens, UniProt O43318)
T31 construct: host or cells: T7 phage grown in E. coli (BL21-derived)
Procedure, shortened: as §1

T1 sequence (Q9BUB5 whole entry): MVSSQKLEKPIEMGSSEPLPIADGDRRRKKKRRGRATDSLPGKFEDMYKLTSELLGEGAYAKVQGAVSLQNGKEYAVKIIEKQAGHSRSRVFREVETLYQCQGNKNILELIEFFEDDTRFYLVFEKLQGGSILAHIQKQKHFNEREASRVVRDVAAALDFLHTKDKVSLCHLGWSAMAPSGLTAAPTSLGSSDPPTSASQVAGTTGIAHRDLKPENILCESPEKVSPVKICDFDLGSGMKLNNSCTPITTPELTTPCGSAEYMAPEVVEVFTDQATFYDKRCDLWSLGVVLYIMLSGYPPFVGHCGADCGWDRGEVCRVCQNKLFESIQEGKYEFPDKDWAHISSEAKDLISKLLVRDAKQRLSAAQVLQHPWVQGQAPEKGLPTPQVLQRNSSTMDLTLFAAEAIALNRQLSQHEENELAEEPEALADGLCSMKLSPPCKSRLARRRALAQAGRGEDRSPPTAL

Question: How did the remaining binding at 10 µM (MKNK1) turn out when `C#Cc1cccc(Nc2ncnc3cc(OC)c(OCCCN4CCOCC4)cc23)c1` [NRC-2694, N-(3-ethynylphenyl)-7-methoxy-6-[3-(4-morpholinyl)propoxy]-4-quinazolinamine] was run?
Answer: 1.2%

Question: What about the remaining binding at 10 µM (NEK6) of the same compound?
Answer: 94%

Question: What about the remaining binding at 10 µM (BTK) of the same compound?
Answer: 77%

Question: What about the remaining binding at 10 µM (MUSK) of the same compound?
Answer: 100%

Question: And the remaining binding at 10 µM (EGFR(E746-A750del))?
Answer: 0%

Question: What about the remaining binding at 10 µM (PCTK2) of the same compound?
Answer: 72%

Question: What about the remaining binding at 10 µM (ARK5) of the same compound?
Answer: 29%

Question: What about the remaining binding at 10 µM (EGFR(S752-1759del)) of the same compound?
Answer: 0%

Question: And the remaining binding at 10 µM (PIM2)?
Answer: 83%

Question: What about the remaining binding at 10 µM (MAP4K3) of the same compound?
Answer: 52%

Question: What about the remaining binding at 10 µM (AKT1) of the same compound?
Answer: 100%

Question: And the remaining binding at 10 µM (ACVR2A)?
Answer: 92%

Question: What about the remaining binding at 10 µM (RIPK1) of the same compound?
Answer: 100%

Question: And the remaining binding at 10 µM [1]?
Answer: 85%

Question: What about the remaining binding at 10 µM (RET) of the same compound?
Answer: 65%

Question: What about the remaining binding at 10 µM (PRKD2) of the same compound?
Answer: 0.4%

Question: And the remaining binding at 10 µM (RIOK1)?
Answer: 36%

Question: And the remaining binding at 10 µM (CHEK1)?
Answer: 42%

Question: And the remaining binding at 10 µM [2]?
Answer: 72%

Question: What about the remaining binding at 10 µM (BRAF(V600E)) of the same compound?
Answer: 73%

Question: And the remaining binding at 10 µM (FLT3)?
Answer: 49%

Question: And the remaining binding at 10 µM (ADCK3)?
Answer: 14%

Question: And the remaining binding at 10 µM [3]?
Answer: 84%

Question: And the remaining binding at 10 µM (PRKCE)?
Answer: 65%

Question: And the remaining binding at 10 µM (CSNK1G3)?
Answer: 61%

Question: What about the remaining binding at 10 µM (AAK1) of the same compound?
Answer: 38%

Question: What about the remaining binding at 10 µM (ABL2) of the same compound?
Answer: 43%

Question: What about the remaining binding at 10 µM [4] of the same compound?
Answer: 81%

Question: What about the remaining binding at 10 µM (ERK5) of the same compound?
Answer: 90%

Question: What about the remaining binding at 10 µM (CAMKK1) of the same compound?
Answer: 71%

Question: And the remaining binding at 10 µM (TAK1)?
Answer: 66%
